Measurements as given in patent US7399775B2, “β-amyloid protein production/secretion inhibitor” (Daiichi Pharmaceutical Co., Ltd., priority 2001, dated 2008).

Compound: CS(=O)(=O)CCCCC(c1cc(F)cc(F)c1)S(=O)(=O)c1ccc(Cl)cc1 (stereo not shown) [Example 72, 1-[1-[(4-Chlorophenyl)sulfonyl]-5-(methylsulfonyl)pentyl]-3,5-difluorobenzene]
- melting point: 126 to 127 °C

Compound: O=S(=O)(Cc1ccc(C(c2cc(F)ccc2F)S(=O)(=O)c2ccc(Cl)cc2)nc1)c1ccc(Cl)cc1 (stereo not shown) [Example 328, 2-[(4-Chlorophenylsulfonyl)-(2,5-difluorophenyl)methyl]-5-[(4-chlorophenylsulfonyl)methyl]pyridine]
- melting point: 186 to 187 °C

Compound: Cl.NCCCC(c1cc(F)ccc1F)S(=O)(=O)c1ccc(Cl)cc1 (stereo not shown)
- melting point: 232 to 233 °C

Compound: CS(=O)(=O)CCCCC(c1cc(Cl)ccc1F)S(=O)(=O)c1ccc(Cl)cc1 (stereo not shown) [Example 79, 4-Chloro-2-[1-(4-chlorophenylsulfonyl)-5-(methylsulfonyl)pentyl]-1-fluorobenzene]
- melting point: 116 to 117 °C

Compound: O=S(=O)(c1ccc(Cl)cc1)C1(c2cc(F)ccc2F)CC1 [Example 233, 2-[1-[(4-Chlorophenyl)sulfonyl]cyclopropyl]-1,4-difluorobenzene]
- melting point: 177 to 179 °C

Compound: O=S(=O)(c1ccc(Cl)cc1)C1(c2ccccc2CO)CCCCC1 [Example 286, [2-[1-[(4-Chlorophenyl)sulfonyl]cyclohexyl]phenyl]methanol]
- melting point: 148 to 150 °C (dec.)

Compound: CS(=O)(=O)CCCCC(c1ccc(Cl)c(Cl)c1)S(=O)(=O)c1ccc(Cl)cc1 (stereo not shown) [Example 69, 1,2-Dichloro-4-[1-[(4-chlorophenyl)sulfonyl]-5-(methylsulfonyl)pentyl]benzene]
- melting point: 143 to 144 °C

Compound: CS(=O)(=O)CCCCC(c1cccc(F)c1)S(=O)(=O)c1ccc(Cl)cc1 (stereo not shown) [Example 54, 1-[1-[(4-Chlorophenyl)sulfonyl]-5-(methylsulfonyl)pentyl]-3-fluorobenzene]
- melting point: 116 to 117 °C

Compound: CC(CCNS(C)(=O)=O)C(c1cc(F)ccc1F)S(=O)(=O)c1ccc(Cl)cc1 (stereo not shown) [Example 244, N-[4-[(4-Chlorophenyl)sulfonyl]-4-(2,5-difluorophenyl)-3-methylbutyl]methanesulfonamide]
- melting point: 163 °C

Compound: CN(C)S(=O)(=O)N1CCC(c2cc(F)ccc2F)(S(=O)(=O)c2ccc(Cl)cc2)CC1 [Example 270, N,N-Dimethyl-4-[(4-chlorophenyl)sulfonyl]-4-(2,5-difluorophenyl)-1-piperidinesulfonamide]
- melting point: 125 to 129 °C

Compound: CCCC(O)C(c1cc(F)ccc1F)S(=O)(=O)c1ccc(Cl)cc1 (stereo not shown) [Example 11, 1-[(4-Chlorophenyl)sulfonyl]-1-(2,5-difluorophenyl)-2-pentanol]
- melting point: 76.5 to 78 °C

Compound: CCOC(=O)CC(c1cc(F)ccc1F)S(=O)(=O)c1ccc(Cl)cc1 (stereo not shown) [Example 25, Ethyl 3-[(4-chlorophenyl)sulfonyl]-3-(2,5-difluorophenyl)propionate]
- melting point: 99.5 to 100.5 °C

Compound: CS(=O)(=O)CCCCC(C1CCCCC1)S(=O)(=O)c1ccc(Cl)cc1 (stereo not shown) [Example 95, 1-Chloro-4-[1-cyclohexyl-5-(methylsulfonyl)pentylsulfonyl]benzene]
- melting point: 104 to 106 °C

Compound: CN(C)CC(=O)N1CCC(c2cc(F)ccc2F)(S(=O)(=O)c2ccc(Cl)cc2)CC1 [Example 271, 1-[4-[(4-Chlorophenyl)sulfonyl]-4-(2,5-difluorophenyl)piperidino]-2-(dimethylamino)-1-ethanone]
- melting point: 88 to 92 °C

Compound: O=C(NCCCC(c1cc(F)ccc1F)S(=O)(=O)c1ccc(Cl)cc1)OCCI (stereo not shown) [Example 224, 2-Iodoethyl N-[4-[(4-chlorophenyl)sulfonyl]-4-(2,5-difluorophenyl)butyl]carbamate]
- melting point: 100 to 101 °C

Compound: O=S(=O)(c1ccc(Cl)cc1)C(Cc1ccc(F)cc1)c1cc(F)ccc1F (stereo not shown) [Example 314, 2-[1-(4-Chlorophenylsulfonyl)-2-(4-fluorophenyl)ethyl]-1,4-difluorobenzene]
- melting point: 151 to 153 °C

Compound: Cn1c(Cl)cnc1C(c1cc(F)ccc1F)S(=O)(=O)c1ccc(Cl)cc1 (stereo not shown) [Example 151, 2-[[(4-Chlorophenyl)sulfonyl]-(2,5-difluorophenyl)methyl]-1-methyl-5-chloro-1H-imidazole]
- melting point: 179 to 180 °C

Compound: CN1CCC(C(c2ccncc2)S(=O)(=O)c2ccc(Cl)cc2)CC1 (stereo not shown) [Example 124, 4-[(4-Chlorophenylsulfonyl)(1-methylpiperidin-4-yl)methyl]pyridine]
- melting point: 176 to 177 °C

Compound: CS(=O)(=O)CCCCC(c1ccccc1)S(=O)(=O)c1ccc(Cl)cc1 (stereo not shown) [Example 51, 1-Chloro-4-(5-methylsulfonyl-1-phenylpentyl)sulfonylbenzene]
- melting point: 151 to 152 °C

Compound: CC(CCCO)C(c1cc(F)ccc1F)S(=O)(=O)c1ccc(Cl)cc1 (stereo not shown) [Example 39, 5-[(4-Chlorophenyl)sulfonyl]-5-(2,5-difluorophenyl)-4-methyl-1-pentanol]
- melting point: 84 to 86 °C

Compound: Cl.O=S(=O)(c1ccc(Cl)cc1)C(c1cc(F)ccc1F)C1CCNCC1 (stereo not shown)
- melting point: 184 to 190 °C

Compound: CS(=O)(=O)CCCCC(c1cnco1)S(=O)(=O)c1ccc(Cl)cc1 (stereo not shown) [Example 118, 5-[1-(4-Chlorophenylsulfonyl)-5-(methylsulfonyl)pentyl]oxazole]
- melting point: 164 to 166 °C

Compound: O=S(=O)(c1ccc(Cl)cc1)C(CCCCO)(CCCCO)c1cc(F)ccc1F [Example 19, 5-[(4-Chlorophenyl)sulfonyl]-5-(2,5-difluorophenyl)-1,9-nonanediol]
- melting point: 107 to 108.5 °C

Compound: O=C(O)c1ccc(C(c2cc(F)ccc2F)S(=O)(=O)c2ccc(Cl)cc2)nc1 (stereo not shown) [Example 338, [6-[(4-Chlorophenylsulfonyl)-(2,5-difluorophenyl)methyl]pyridin-3-yl]carboxylic Acid]
- melting point: > 230 °C

Compound: CS(=O)(=O)NCCCCC(c1cc(F)ccc1F)S(=O)(=O)c1ccc(Cl)cc1 (stereo not shown) [Example 242, N-[5-[(4-Chlorophenyl)sulfonyl]-5-(2,5-difluorophenyl)pentyl]methanesulfonamide]
- melting point: 106 to 107 °C

Compound: O=S(=O)(c1ccc(Cl)cc1)C1(c2cc(F)ccc2F)CCCCCC1 [Example 275]
- melting point: 101 to 103 °C

Compound: COc1cccnc1C(c1cc(F)ccc1F)S(=O)(=O)c1ccc(Cl)cc1 (stereo not shown) [Example 139, 2-[[(4-Chlorophenyl)sulfonyl]-(2,5-difluorophenyl)methyl]-3-methoxypyridine]
- melting point: 184 to 185 °C

Compound: O=S(=O)(c1ccc(Cl)cc1)C(Cc1ccncc1)c1cc(F)ccc1F (stereo not shown) [Example 220, 4-[2-[(4-Chlorophenyl)sulfonyl]-2-(2,5-difluorophenyl)ethyl]pyridine]
- melting point: 129 °C

Compound: CS(=O)(=O)CCCCC(c1cccc(Cl)c1F)S(=O)(=O)c1ccc(Cl)cc1 (stereo not shown) [Example 78, 1-Chloro-3-[1-(4-chlorophenylsulfonyl)-5-(methylsulfonyl)pentyl]-2-fluorobenzene]
- melting point: 131 to 132 °C

Compound: CS(=O)(=O)CCCCC(c1cnccc1Cl)S(=O)(=O)c1ccc(Cl)cc1 (stereo not shown) [Example 105, 4-Chloro-3-[1-[(4-chlorophenyl)sulfonyl]-5-(methylsulfonyl)pentyl]pyridine]
- melting point: 156 to 157 °C

Compound: O=S(=O)(c1ccc(Cl)cc1)C(Cc1ccco1)c1cc(F)ccc1F (stereo not shown) [Example 296, 2-[2-[(4-Chlorophenyl)sulfonyl]-2-(2,5-difluorophenyl)ethyl]furan]
- melting point: 90 to 93 °C

Compound: Cl.O=S(=O)(c1ccc(Cl)cc1)C1(c2cc(F)ccc2F)CCNCC1
- melting point: 239 to 246 °C (dec.)

Compound: O=S(=O)(c1ccc(Cl)cc1)C(c1cc(F)ccc1F)c1cc(Cl)ncc1Cl (stereo not shown) (hydrate or solvate) [Example 345, 2,5-Dichloro-4-[(4-chlorophenylsulfonyl)-(2,5-difluorophenyl)methyl]pyridine 0.5 hydrate]
- melting point: 147 to 148 °C

Compound: O=C(OCCC(c1cc(F)ccc1F)S(=O)(=O)c1ccc(Cl)cc1)N1CCCC1 (stereo not shown) [Example 208, 3-[(4-Chlorophenyl)sulfonyl]-3-(2,5-difluorophenyl)propyl=1-pyrrolidinecarboxylate]
- melting point: 109 to 110 °C

Compound: O=S(=O)(/C(=C/c1ccccc1)c1cc(F)ccc1F)c1ccc(Cl)cc1 [Example 6, E-2-[1-[(4-Chlorophenyl)sulfonyl]-2-phenylethenyl]-1,4-difluorobenzene]
- melting point: 144.5 to 145 °C

Compound: O=C(OC(=C(c1cc(F)ccc1F)S(=O)(=O)c1ccc(Cl)cc1)c1ccccc1)c1ccccc1 [Example 9, 2-[(4-Chlorophenyl)sulfonyl]-2-(2,5-difluorophenyl)-1-phenylethenyl benzoate]
- melting point: 224.5 to 227 °C

Compound: CCCCCC(c1cc(F)ccc1F)S(=O)(=O)c1ccc(Cl)cc1 (stereo not shown) [Example 322, 2-[1-(4-Chlorophenylsulfonyl)hexyl]-1,4-difluorobenzene]
- melting point: 68 to 69 °C

Compound: O=S(=O)(c1ccc(Cl)cc1)C(CCCCCBr)c1cc(F)ccc1F (stereo not shown) [Example 37, 2-[6-Bromo-1-[(4-chlorophenyl)sulfonyl]hexyl]-1,4-difluorobenzene]
- melting point: 77 to 79 °C

Compound: O=C(OCCC(c1cc(F)ccc1F)S(=O)(=O)c1ccc(Cl)cc1)N1CCN(c2ccccc2)CC1 (stereo not shown) [Example 212, 3-[(4-Chlorophenyl)sulfonyl]-3-(2,5-difluorophenyl)propyl=4-phenyl1-piperazinecarboxylate]
- melting point: 127 to 129 °C

Compound: O=S(=O)(c1ccc(Cl)cc1)C(CCN1CCCCC1)c1cc(F)ccc1F (stereo not shown) [Example 320, 1-[3-(4-Chlorophenylsulfonyl)-3-(2,5-difluorophenyl)propyl]piperidine]
- melting point: 106 to 107 °C

Compound: O=S(=O)(c1ccc(Cl)cc1)C(c1ccccn1)c1cc(F)ccc1F (stereo not shown) [Example 135, 2-[[(4-Chlorophenyl)sulfonyl]-(2,5-difluorophenyl)methyl]pyridine]
- melting point: 171 to 172 °C

Compound: CC(C)CCCC(c1cc(F)ccc1F)S(=O)(=O)c1ccc(Cl)cc1 (stereo not shown) [Example 325, 2-[1-(4-Chlorophenylsulfonyl)-5-methylhexyl]-1,4-difluorobenzene]
- melting point: 79 to 80 °C

Compound: O=C(O)CCCCCC(c1cc(F)ccc1F)S(=O)(=O)c1ccc(Cl)cc1 (stereo not shown) [Example 205, 7-[(4-Chlorophenyl)sulfonyl]-7-(2,5-difluorophenyl)heptanoic Acid]
- melting point: 72 to 76 °C
